{"source": "paper PMC8047729", "about": "“Identification of a nanomolar affinity α-synuclein fibril imaging probe by ultra-high throughput in silico screening” (Chemical Science, 2020)", "key": {"[1]": {"molecular_target": "T1, αS fibrils, Site 2 ([^3H]Tg-190b) (Homo sapiens, UniProt P37840)", "test": "Competition binding assay with Site 2 radioligand [^3H]Tg-190b on αS fibrils", "conditions": "αS fibrils 100 nM, [^3H]Tg-190b 6 nM, 1 h 37 °C; 95% confidence intervals in parentheses in Table 1 (n = 3)", "method": "(§1) Fig. S10 Screening of SAR Library Derived from Compound 6. Site 2 radioligand competition binding assays with [3H]Tg-190b. ANOVA was performed with Dunnett’s multiple comparisons test, where […]\n(§2) *P<0.0332, **P<0.0021, ***P<0.0002 and ****P<0.0001.\n(§3) Competition binding assay. αS fibrils (100 nM for Site 2 and 50 nM for Site 9) were mixed with Site 2 ligand [3H]Tg-190b (6 nM) or Site 9 ligand [3H]BF2846 (3 nM) and varying concentrations of unlabeled compounds 2, 6, 24, 28, 31, 39, 40, or 52. Compounds were diluted in 50 mM Tris-HCl buffer (pH 7.4) and mixed with fibrils and radioligand in a total volume of 150 µL. Total binding was measured in the absence of competitor and nonspecific binding was determined in reactions containing unlabeled Tg-190b (1 µM) or BF2846 (0.5 µM). In a duplicate set of binding […]\n(§4) binding to the filter paper. Reactions were incubated at 37 °C for 1 h. After incubation, bound […]\n(§5) Filters containing the bound ligand were mixed with 3 mL of scintillation cocktail (MicroScint-20, PerkinElmer) and counted after 12 h of incubation on a MicroBeta System (PerkinElmer). All data points were acquired in triplicate.\n(§6) (1 picture or pasted object on this page, not shown here)\n(§7) The measured cpm values were converted to % specific binding as described by the equation […]\n(§8) % specific binding = !\"#$\"#% \"# ’() *+),)#-) ./ -.0*)’\"’.+1#.#,*)-\"/\"- !\"#$\"#% ∗ 100 ’.’23 !\"#$\"#%1#.#,*)-\"/\"- !\"#$\"#%\n(§9) IC50 values were calculated by fitting the data to Equation S1 below by non-linear regression, using GraphPad Prism software:\n(§10) Y = Bottom + (Top-Bottom) / (1+ 10(813.%9:;<)) (S1) where logIC50 is the log of the concentration of competitor that results in binding half-way between Bottom and Top; Top and Bottom are plateaus in the units of Y axis; they are binding observed in the absence of competitor and in the presence of a maximal concentration of competitor, respectively. Binding curves for compounds 2 and 6 are shown in Fig. 2 in the main text and for compounds 6, 24, 28, 31, 39, 40, and 52 in Figs. S11 and S12."}, "[2]": {"molecular_target": "αS fibrils, Site 9 ([^3H]BF2846) (Homo sapiens, UniProt P37840)", "test": "Competition binding assay with Site 9 radioligand [^3H]BF2846 on αS fibrils", "conditions": "αS fibrils 50 nM, [^3H]BF2846 3 nM, 1 h 37 °C; 95% confidence intervals in parentheses (n = 3)", "method": "as §1, §2, §3, §4, §5, §6, §7, §8, §9, §10"}, "[3]": {"molecular_target": "T1, αS fibrils, Site 2 ([^3H]Tg-190b)", "test": "Single-concentration radioligand competition screen (100 nM compound) against [^3H]Tg-190b", "assay_type": "binding", "conditions": "100 nM αS fibrils, [^3H]Tg-190b 6 nM", "method": "Compounds 1–17 were purchased from vendors that were listed on the ZINC15 compound library. […] Total binding was measured in the absence of competitor and nonspecific binding was determined in reactions containing unlabeled Tg-190b (1 μM) or BF2846 (0.5 μM). […] Filters containing the bound ligand were mixed with 3 mL of scintillation cocktail (MicroScint-20, PerkinElmer, Inc.) and counted after 12 h of incubation on a MicroBeta System (PerkinElmer, Inc.). All data points were measured in triplicate. Screening of compounds 18–56 for the SAR study was performed in a similar fashion.\nIn Vitro Radioligand Binding Assays\nScreening compound library. Compounds 1-17 (Fig. S8) were purchased from vendors that were listed on the ZINC15 compound library. 3 Compounds were screened for αS binding and after identifying the lead compound, 6, the core structure of compound 6 and its pyrazole or oxadiazole derivatives were used for similarity search on the Mcule, Inc. website.12 The similarity threshold was set to higher than 0.8, then compound 18-56 (Fig. S9) were chosen and ordered from the four companies mentioned above.\nIn order to screen the purchased compounds for αS binding, 100 nM solutions of each compound (1-56) were incubated for 1 hour at 37 °C with 100 nM αS fibrils and [3H]Tg-190b (6 nM) or [3H]BF2846 (3 nM) in 50 mM Tris-HCl, pH 7.4. Total binding was measured in the absence of competitor and nonspecific binding was determined in reactions containing unlabeled Tg-190b (1 µM) or BF2846 (0.5 µM). After incubation, bound and free radioligand were […]\nscintillation cocktail (MicroScint-20, PerkinElmer; Waltham, MA, USA) and counted after 12 h of incubation on a MicroBeta System (PerkinElmer). All data points were acquired in triplicate.\nPercentage of bound radioligand relative to total binding was plotted and data was analyzed by One-Way ANOVA, comparing the mean of each data set to the mean of total binding. […]\nare shown in Fig. 2 in the main text, and Fig. S8 and S10."}, "αS aggregation": {"molecular_target": "αS aggregation (Homo sapiens, UniProt P37840)", "test": "αS aggregation fluorescence polarization experiment", "assay_type": "biochemical", "conditions": "10 and 100 μM compound, 100 μM αS monomer with 1% labeled αS", "method": "(§11) Fluorescence Polarization and Photo -Crosslinking Assays\n(§12) Aggregation and disaggregation fluorescence polarization experiments. Wild-type and αS with a fluorescein maleimide attached via Cys114 mutation were produced as previously described.10 Aggregations were performed at a total monomer concentration of 100 μM with 1% labeled αS in 20 mM Tris, 100 NaCl pH 7.4 in the presence of 10 and 100 μM compound 6 and with equivalent volume of DMSO as a control. At each timepoint, an aliquot of the fibrilization reaction was removed and diluted 10-fold in buffer. Fluorescence polarization (FP) was measured in a Greiner black 96 half-area well microplate (Greiner Bio-One North America Inc.; Monroe, NC, USA) at a total volume of 50 μL on a Tecan F200 plate reader (San Jose, CA, USA).\nAggregations were performed in triplicate. […]\nFig. S4 Impact of Compound 6 on αS Aggregation. Aggregation of αS in the presence of 1% labeled monomer along with (light-green) 10 and (dark-green) 100 μM compound 6 monitored by (a) fluorescence polarization (FP) and (b) Congo Red absorbance. Aggregation in the presence of compound was compared to aggregation in the presence of volume matched addition of DMSO for (grey) 10 and (black) 100 μM […]\n10 and (black) 100 μM compound administration was used as a negative control. […]"}, "αS fibrils [4]": {"molecular_target": "T2, αS fibrils (Homo sapiens, UniProt P37840)", "test": "αS fibril disaggregation (stability) fluorescence polarization experiment", "assay_type": "biochemical", "conditions": "10 μM labeled fibrils; compound 6 at 10 and 100 μM, EGCG and NDGA at 100 μM", "method": "as §11, §12\nAggregations were performed in triplicate.\nDisaggregation experiments were performed on labeled fibril samples prepared as described above in the absence of compound. A final concentration of 10 μM fibrils was added to each well for each disaggregation experiment and compound 6, nordihydroguaiaretic acid (NDGA), epigallocatechin gallate (EGCG) or DMSO (1%) was added just prior to measurement to the final concentrations detailed in Fig. S3 and total volumes of 50 μL. Samples were shaken at 149 rpm at room temperature with FP measurements taken every 150 s. EGCG and NDGA […]\nFig. S5 Impact of Compound 6 on αS Fibril Stability. Assessment of potential remodeling of 1% labeled αS fibrils by (light-green) 10 and (dark-green) 100 μM compound 6 compared to (red) 100 μM EGCG and (blue) 100 μM NDGA as a positive control. DMSO administration volume-matched to that used for (grey) 10 and (black) 100 μM compound administration was used as a negative control. […]"}, "αS fibrils [5]": {"molecular_target": "T2, αS fibrils", "test": "Photo-crosslinking assay with MALDI-MS of tryptic digest", "assay_type": "binding", "conditions": "100 μM crosslinker, 365 nm irradiation, trypsin digest MALDI-MS", "method": "Photo-crosslinking assay. Aggregations of αS prepared as described above were transferred to a clear glass vial to assist in photo -crosslinking, and compounds ClX1, ClX2, or DMSO (as a vehicle control) were delivered to their respective vials (100 μM final concentrations). The resulting fibril-crosslinker or fibril-DMSO mixture was incubated for 1 h at 37 °C, and thereafter irradiated with long wave UV from a TLC lamp (365 nm) for 1 h. The irradiated fibrils were then boiled in SDS (25 mM final concentration), and subjected to CHCl3/MeOH precipitation to remove excess detergent and buffer as previously described.2 The translucent brown protein pellet was then resuspended in 40 μL of sterilized, Milli-Q water. At this point, the whole protein sample was subjected to MALDI-MS analuysis by spotting 1 μL of sample in 1μL of sinapic acid matrix, prepared as a saturated solution in a 50:50 mixture of ACN:H2O with 0.1% TFA. The remaining sample was digested using trypsin (Promega Corporation) at 37 °C overnight (50 mM NH4CO3, 1 mM CaCl2, 1:50-1:100 protein:trypsin ratio). The resulting tryptic peptide mixture was diluted 1:10 in sterile water with 0.1% TFA, and analyzed via MALDI-MS by spotting 1 μL of sample in 1 μL of CHCA matrix or DHB matrix, prepared as saturated solutions in a 50:50 mixture of ACN:H2O with 0.1% TFA. […]"}, "[6]": {"molecular_target": "αS fibrils in mouse brain lysate (Homo sapiens, UniProt P37840)", "test": "Photo-crosslinking and click labeling in mouse brain lysate", "assay_type": "binding", "conditions": "50 μM CLX2, 50 μM αS fibrils, 10 mg/ml lysate", "source_text": "Photo-crosslinking in Mouse Brain Lysate\nTotal Mouse Brain Protein Preparation. Mice were anesthetized using isoflurane gas in a closed chamber (AKORN, Lake Forest, IL, USA) followed by cervical dislocation. Brains were quickly dissected and snap-frozen in dry ice. Mouse brains were mechanically homogenized in five -fold excess (w/w) RIPA buffer (Thermo Fisher Scientific; Waltham, MA, USA ) using a ground glass tissue plunger. Homogenized sample was then subjected to probe sonication (Qsonica, Newtown, CT, USA) on ice using a microtip, at an amplitude of 50% at intervals of 10 s on 20 s off, for a total process-time (on-time) of 5 minutes. Crude lysate was then clarified by centrifugation at 10,000xg at 4 °C for 60 min. […] The lysate total protein concentration was then determined using the Bio-Rad detergent compatible (DC) protein assay […]\nsamples (50 µM final concentration), followed by “click -mix” (50 µM copper sulfate, 100 µM THPTA final concentration), sodium ascorbate (200 µM final concentration), and PBS to achieve a final volume of 200 µL. […] Samples were then analyzed via SDS-PAGE using a 4-12% Bis-Tris pre-cast gel (NuPAGE, Thermo Fisher Scientific). αS monomer labeled with BODIPY-FL maleimide (prepared as previously described13) was used as a control. […]"}}, "note": "Entries after “also recorded” stand apart in the source; their conditions may differ."}
{"smiles": "Cc1ccc(OCC(=O)Nc2cc(-c3ccc(F)cc3)no2)cc1C", "note": "[Compound 6]", "values": [{"measurement": "IC50", "setting": "[1]", "value": 9.49, "unit": "nM"}, {"measurement": "IC50", "setting": "[2]", "value": 109, "unit": "nM"}, {"measurement": "Binding in Site 2 radioligand competition screen (in words)", "setting": "[3]", "value": "high affinity"}, {"measurement": "Effect on rate of αS aggregation", "setting": "αS aggregation", "value": "No significant effect; also recorded: did not show any significant effect"}, {"measurement": "Effect on stability of αS fibrils", "setting": "αS fibrils [4]", "value": "no apparent effect; also recorded: did not show any significant effect"}]}
{"smiles": "O=C(O[C@@H]1Cc2c(O)cc(O)cc2O[C@@H]1c1cc(O)c(O)c(O)c1)c1cc(O)c(O)c(O)c1", "note": "[EGCG, epigallocatechin gallate, reference compound]", "values": [{"measurement": "Effect on stability of αS fibrils", "setting": "αS fibrils [4]", "value": "disrupted fibril stability"}]}
{"smiles": "CC(Cc1ccc(O)c(O)c1)C(C)Cc1ccc(O)c(O)c1", "note": "(stereo not drawn) [NDGA, nordihydroguaiaretic acid, reference compound]", "values": [{"measurement": "Effect on stability of αS fibrils", "setting": "αS fibrils [4]", "value": "disrupted fibril stability"}]}
{"smiles": "C#CCCC1(CCOc2ccc(OCC(=O)Nc3cc(-c4ccc(I)cc4)no3)cc2)N=N1", "note": "[ClX2]", "values": [{"measurement": "Crosslinked site / peptide fragment on αS fibrils", "setting": "αS fibrils [5]", "value": "residues 22-34; also recorded: Site 2"}, {"measurement": "Binding by crosslinking and fluorescent azide labeling in mouse brain lysate", "setting": "[6]", "value": "binding to αS fibrils, but also to many other proteins in mouse brain lysate"}]}
